# pIC50: −log10 of the molar value.
# Tests used:
# Format in all cases: cell-based
# human TLR9 = target: T1, human TLR9 (Homo sapiens, UniProt Q9NR96); experiment: TLR9 inhibition reporter assay (HEK-Blue SEAP); conditions: HEK-Blue cells overexpressing human TLR9, stimulated with ODN2006 5 nM, 22 hour incubation
# T1 construct: host or cells: HEK-Blue cells
# T1 sequence (Q9NR96 26-1032): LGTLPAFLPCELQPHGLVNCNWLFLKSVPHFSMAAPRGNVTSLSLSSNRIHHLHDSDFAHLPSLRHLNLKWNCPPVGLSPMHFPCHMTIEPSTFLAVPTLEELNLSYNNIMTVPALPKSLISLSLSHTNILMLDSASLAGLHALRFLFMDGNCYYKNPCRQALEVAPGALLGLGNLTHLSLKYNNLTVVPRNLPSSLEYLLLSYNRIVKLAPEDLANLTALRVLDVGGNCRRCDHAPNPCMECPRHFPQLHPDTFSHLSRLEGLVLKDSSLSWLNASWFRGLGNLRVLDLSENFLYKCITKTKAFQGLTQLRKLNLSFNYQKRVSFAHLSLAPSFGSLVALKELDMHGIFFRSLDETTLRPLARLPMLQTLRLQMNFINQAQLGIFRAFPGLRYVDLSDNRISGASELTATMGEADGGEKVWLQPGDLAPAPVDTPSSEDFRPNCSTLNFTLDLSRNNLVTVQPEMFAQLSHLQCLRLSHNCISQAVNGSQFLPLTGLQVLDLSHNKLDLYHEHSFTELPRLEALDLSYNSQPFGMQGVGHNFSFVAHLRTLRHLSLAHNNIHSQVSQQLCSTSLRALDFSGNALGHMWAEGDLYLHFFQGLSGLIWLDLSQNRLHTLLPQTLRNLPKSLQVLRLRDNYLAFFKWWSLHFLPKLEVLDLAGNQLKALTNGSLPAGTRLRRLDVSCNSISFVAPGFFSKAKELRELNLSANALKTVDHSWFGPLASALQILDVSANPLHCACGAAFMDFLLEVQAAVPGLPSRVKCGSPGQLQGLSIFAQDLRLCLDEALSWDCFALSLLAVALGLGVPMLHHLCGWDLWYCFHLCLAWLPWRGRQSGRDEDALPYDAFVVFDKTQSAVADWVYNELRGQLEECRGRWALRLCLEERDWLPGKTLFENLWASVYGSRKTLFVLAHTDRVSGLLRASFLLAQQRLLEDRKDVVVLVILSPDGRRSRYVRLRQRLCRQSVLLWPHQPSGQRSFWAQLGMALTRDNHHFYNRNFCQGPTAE
# Procedure: (§1) TLR7/8/9 Inhibition Reporter Assays
# (§2) HEK-Blue™-cells (Invivogen) overexpressing human TLR7, TLR8 or TLR9 receptors were used for screening inhibitors of these receptors using an inducible SEAP (secreted embryonic alkaline phosphatase) reporter gene under the control of the IFN-β minimal promoter fused to five NF-κB and AP-1-binding sites. Briefly, cells are seeded into Greiner 384 well plates (15000 cells per well for TLR7, 20,000 for TLR8 and 25,000 for TLR9) and then treated with test compounds in DMSO to yield a final dose response concentration range of 0.05 nM to 50 μM. After a 30 minute compound pre-treatment at room temperature, the cells are then stimulated with a TLR7 ligand (gardiquimod at a final concentration of 7.5 μM), TLR8 ligand (R848 at a final concentration of 15.9 μM) or TLR9 ligand (ODN2006 at a final concentration of 5 nM) to activate NF-κB and AP-1 which induce the production of SEAP. After a 22 hour incubation at 37° C., 5% CO2, SEAP levels are determined with the addition of HEK-Blue™ Detection reagent (Invivogen), a cell culture medium that allows for detection of SEAP, according to manufacturer's specifications. The percent inhibition is determined as the % reduction in the HEK-Blue signal present in wells treated with agonist plus DMSO alone compared to wells treated with a known inhibitor.
# human TLR7 = target: T2, human TLR7 (Homo sapiens, UniProt Q9NYK1); experiment: TLR7 inhibition reporter assay (HEK-Blue SEAP); conditions: HEK-Blue cells overexpressing human TLR7, stimulated with gardiquimod 7.5 μM, 22 hour incubation
# T2 construct: host or cells: HEK-Blue cells
# T2 sequence (Q9NYK1 27-1049): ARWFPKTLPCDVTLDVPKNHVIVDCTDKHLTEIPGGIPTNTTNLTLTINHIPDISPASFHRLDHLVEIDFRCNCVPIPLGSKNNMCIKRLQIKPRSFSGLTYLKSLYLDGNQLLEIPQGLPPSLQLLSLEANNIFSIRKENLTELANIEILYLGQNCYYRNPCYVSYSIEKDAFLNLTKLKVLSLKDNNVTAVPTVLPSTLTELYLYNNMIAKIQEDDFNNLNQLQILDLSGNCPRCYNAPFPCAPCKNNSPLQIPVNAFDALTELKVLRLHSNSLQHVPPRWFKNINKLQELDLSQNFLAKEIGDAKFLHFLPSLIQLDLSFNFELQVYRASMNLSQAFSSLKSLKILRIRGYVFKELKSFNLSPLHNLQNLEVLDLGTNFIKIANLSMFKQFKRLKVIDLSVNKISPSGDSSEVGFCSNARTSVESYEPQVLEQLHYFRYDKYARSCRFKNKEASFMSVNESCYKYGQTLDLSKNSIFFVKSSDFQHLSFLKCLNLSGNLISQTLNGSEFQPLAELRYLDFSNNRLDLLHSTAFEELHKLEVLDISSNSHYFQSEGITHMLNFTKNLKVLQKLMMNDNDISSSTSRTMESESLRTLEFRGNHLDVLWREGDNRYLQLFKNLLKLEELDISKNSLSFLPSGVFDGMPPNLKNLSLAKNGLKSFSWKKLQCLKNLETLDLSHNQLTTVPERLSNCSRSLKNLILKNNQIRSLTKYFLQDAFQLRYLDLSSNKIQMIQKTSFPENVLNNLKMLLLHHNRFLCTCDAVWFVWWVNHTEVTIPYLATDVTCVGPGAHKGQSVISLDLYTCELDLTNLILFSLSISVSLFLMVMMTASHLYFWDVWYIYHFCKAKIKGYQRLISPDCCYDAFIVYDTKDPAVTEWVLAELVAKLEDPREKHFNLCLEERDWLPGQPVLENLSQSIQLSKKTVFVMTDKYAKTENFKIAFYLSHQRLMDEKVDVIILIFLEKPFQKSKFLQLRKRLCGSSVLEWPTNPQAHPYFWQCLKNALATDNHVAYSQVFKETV
# Procedure: as §1, §2
# human TLR8 = target: T3, human TLR8 (Homo sapiens, UniProt Q9NR97); experiment: TLR8 inhibition reporter assay (HEK-Blue SEAP); conditions: HEK-Blue cells overexpressing human TLR8, stimulated with R848 15.9 μM, 22 hour incubation
# T3 construct: host or cells: HEK-Blue cells
# T3 sequence (Q9NR97 27-1041): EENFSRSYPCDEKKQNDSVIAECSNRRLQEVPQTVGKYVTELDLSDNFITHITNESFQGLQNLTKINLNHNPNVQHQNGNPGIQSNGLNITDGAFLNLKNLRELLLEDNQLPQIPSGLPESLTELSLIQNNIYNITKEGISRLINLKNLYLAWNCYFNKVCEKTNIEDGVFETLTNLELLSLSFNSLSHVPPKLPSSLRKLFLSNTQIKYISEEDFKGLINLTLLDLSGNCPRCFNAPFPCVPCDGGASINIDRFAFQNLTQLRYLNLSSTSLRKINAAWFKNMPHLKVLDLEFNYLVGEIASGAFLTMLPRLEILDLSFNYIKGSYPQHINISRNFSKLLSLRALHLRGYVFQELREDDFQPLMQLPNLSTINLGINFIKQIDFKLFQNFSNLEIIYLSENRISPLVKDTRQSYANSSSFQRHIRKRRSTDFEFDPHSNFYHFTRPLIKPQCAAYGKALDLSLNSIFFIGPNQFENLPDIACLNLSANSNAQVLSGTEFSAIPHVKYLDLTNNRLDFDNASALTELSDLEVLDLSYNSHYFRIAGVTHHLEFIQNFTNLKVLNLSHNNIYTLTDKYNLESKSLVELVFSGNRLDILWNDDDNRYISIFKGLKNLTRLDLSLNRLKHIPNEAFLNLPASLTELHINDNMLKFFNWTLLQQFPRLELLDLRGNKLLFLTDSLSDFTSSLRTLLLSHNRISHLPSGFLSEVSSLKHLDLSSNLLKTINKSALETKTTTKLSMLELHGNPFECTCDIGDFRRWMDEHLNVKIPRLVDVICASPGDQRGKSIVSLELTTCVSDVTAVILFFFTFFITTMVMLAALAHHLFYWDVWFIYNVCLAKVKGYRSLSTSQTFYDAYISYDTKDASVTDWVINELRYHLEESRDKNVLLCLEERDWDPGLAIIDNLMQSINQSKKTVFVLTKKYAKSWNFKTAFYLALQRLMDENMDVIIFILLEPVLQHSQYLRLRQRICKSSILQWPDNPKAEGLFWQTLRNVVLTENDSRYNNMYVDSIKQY
# Procedure: as §1, §2
pIC50 (human TLR9),pIC50 (human TLR7),pIC50 (human TLR8),Compound
5.88,7.74,8.85,"Cc1cc2c(C3CCN(CCNS(C)(=O)=O)CC3)n[nH]c2cc1-c1cc(C)c2ncnn2c1 [Example 69, N-(2-(4-(5-methyl-6-(8-methyl-[1,2,4]triazolo[1,5-a]pyridin-6-yl)-1H-indazol-3-yl)piperidin-1-yl)ethyl) methanesulfonamide]"
4.97,8.96,10.00,"Cc1cc(-c2cc3[nH]nc(C4CCC(NCCS(C)(=O)=O)CC4)c3cc2C(C)C)cn2ncnc12 (stereo not drawn) [Example 126, 4-(5-isopropyl-6-(8-methyl-[1,2,4]triazolo[1,5-a]pyridin-6-yl)-1H-indazol-3-yl)-N-(2-(methylsulfonyl)ethyl) cyclohexan-1-amine]"
5.31,9.00,10.00,"Cc1cc(-c2cc3[nH]nc(C4CCC(NC5CC5)CC4)c3cc2C(C)C)cn2ncnc12 (single isomer, unassigned) [Example 119, N-cyclopropyl-4-(5-isopropyl-6-(8-methyl-[1,2,4]triazolo[1,5-a]pyridin-6-yl)-1H-indazol-3-yl)cyclohexan-1-amine]"
5.02,9.22,9.70,"Cc1cc(-c2cc3[nH]nc(C4CCC(N5CC6(COC6)C5)CC4)c3cc2C(C)C)cn2ncnc12 (single isomer, unassigned) [Example 128, 6-(4-(5-isopropyl-6-(8-methyl-[1,2,4]triazolo[1,5-a]pyridin-6-yl)-1H-indazol-3-yl)cyclohexyl)-2-oxa-6-azaspiro[3.3]heptane]"
5.38,9.52,10.00,"Cc1cc(-c2cc3[nH]nc(C4CCC(NC5CC5)CC4)c3cc2C(C)C)cn2ncnc12 (single isomer, unassigned) [Example 118, N-cyclopropyl-4-(5-isopropyl-6-(8-methyl-[1,2,4]triazolo[1,5-a]pyridin-6-yl)-1H-indazol-3-yl)cyclohexan-1-amine]"

# The remaining lines, values behind:
Compound,pIC50 (human TLR9),pIC50 (human TLR7),pIC50 (human TLR8)
"COc1cc(-c2cc3[nH]nc(C4CCC(N(C)C)CC4)c3cc2C(C)C)cn2ncnc12 (single isomer, unassigned) [Example 140, 4-(5-isopropyl-6-(8-methoxy-[1,2,4]triazolo[1,5-a]pyridin-6-yl)-1H-indazol-3-yl)-N,N-dimethylcyclohexan-1-amine]",5.46,9.70,10.00
"Cc1cc2c(C3CCCN(C4COC4)C3)n[nH]c2cc1-c1cc(C)c2ncnn2c1 (stereo not drawn) [Example 42, 8-methyl-6-(5-methyl-3-(1-(oxetan-3-yl)piperidin-3-yl)-1H-indazol-6-yl)-[1,2,4]triazolo[1,5-a]pyridine]",4.84,7.08,9.05
"Cc1cc(-c2cc3[nH]nc(C4CCN(C(=O)CN(C)C)CC4)c3cc2C(C)C)cn2ncnc12 [Example 111, 2-(dimethylamino)-1-(4-(5-isopropyl-6-(8-methyl-[1,2,4]triazolo[1,5-a]pyridin-6-yl)-1H-indazol-3-yl)piperidin-1-yl)ethan-1-one]",4.73,8.74,9.30
"Cc1cc(-c2cc(C)c3ncnn3c2)cc2[nH]nc(OC3CCN(C4CCOCC4)CC3)c12 [Example 178, 8-methyl-6-(4-methyl-3-((1-(tetrahydro-2H-pyran-4-yl)piperidin-4-yl)oxy)-1H-indazol-6-yl)-[1,2,4]triazolo[1,5-a]pyridine]",5.79,8.21,9.30
"COC1CN(C2CCC(c3n[nH]c4cc(-c5cc(C)c6ncnn6c5)c(C(C)C)cc34)CC2)C1 (stereo not drawn) [Example 145, 6-(5-isopropyl-3-(4-(3-methoxyazetidin-1-yl)cyclohexyl)-1H-indazol-6-yl)-8-methyl-[1,2,4]triazolo[1,5-a]pyridine]",5.06,8.82,9.10
"Cc1cc2c(C3CCC(NCC(=O)N(C)C)CC3)n[nH]c2cc1-c1cc(C)c2ncnn2c1 (single isomer, unassigned) [Example 29, N,N-dimethyl-2-((4-(5-methyl-6-(8-methyl-[1,2,4]triazolo[1,5-a]pyridin-6-yl)-1H-indazol-3-yl)cyclohexyl)amino)acetamide]",5.20,7.41,9.05
